# Measurements published in patent US20140171357A1, “VANCOMYCIN DERIVATIVES” (Seachald Pharmaceuticals, Inc., priority 2011, published 2014).
# Key:
# S. aureus ATCC 25923 = experiment: Neutropenic murine thigh infection model; conditions: for AUCc-t (AUC difference between control and treated animals): 24 h time kill; for in vivo efficacy against S. aureus (in words): neutropenic soft tissue infection model
# [1] = test system: β-hemolytic streptococci (23); experiment: MIC broth microdilution, β-hemolytic streptococci; conditions: for fold more potent than teicoplanin and daptomycin / fold more potent than vancomycin: β-hemolytic streptococci; for MIC 50% / MIC 90%: β-hemolytic streptococci (23), MHB + lysed horse blood
# [2] = test system: VanB vancomycin-resistant E. faecalis (12); experiment: MIC broth microdilution, VanB E. faecalis; conditions: for MIC 50% / MIC 90%: E. faecalis, VanB (12)
# [3] = test system: VanA vancomycin-resistant E. faecalis (11); experiment: MIC broth microdilution, VanA E. faecalis; conditions: for MIC 50% / MIC 90%: E. faecalis, VanA (11)
# [4] = test system: methicillin-susceptible S. aureus (MSSA, 22); experiment: MIC broth microdilution, MSSA; conditions: for MIC 50% / MIC 90%: MSSA (22)
# [5] = test system: vancomycin-intermediate S. aureus (VISA, 5); experiment: MIC broth microdilution, VISA
# [6] = test system: heterogeneous VISA (hVISA, 10); experiment: MIC broth microdilution, hVISA
# [7] = test system: Staphylococcus epidermidis (43 strains); experiment: MIC broth microdilution, S. epidermidis; conditions: for MIC 50% / MIC 90%: S. epidermidis (43)
# [8] = test system: vancomycin-susceptible E. faecalis (23); experiment: MIC broth microdilution, vancomycin-susceptible E. faecalis; conditions: for MIC 50% / MIC 90%: E. faecalis, vancomycin-susceptible (23)
# S. pneumoniae (22) = experiment: MIC broth microdilution, S. pneumoniae; conditions: for fold more potent than linezolid: S. pneumoniae; for MIC 50% / MIC 90%: S. pneumoniae (22), MHB + lysed horse blood
# [9] = test system: Staphylococcus aureus (65 strains); experiment: MIC broth microdilution, S. aureus all isolates; conditions: for MIC 50% / MIC 90%: S. aureus (65), all resistance subsets
# [10] = test system: vancomycin-resistant S. aureus (VRSA, 6); experiment: MIC broth microdilution, VRSA
# VanC enterococci (22) = experiment: MIC broth microdilution, vanC-carrying enterococci; conditions: for MIC 50% / MIC 90%: VanC enterococci (22)
# [11] = test system: VanB vancomycin-resistant E. faecium (10); experiment: MIC broth microdilution, VanB E. faecium; conditions: for MIC 50% / MIC 90%: E. faecium, VanB (10)
# [12] = test system: vancomycin-susceptible E. faecium (21); experiment: MIC broth microdilution, vancomycin-susceptible E. faecium; conditions: for MIC 50% / MIC 90%: E. faecium, vancomycin-susceptible (21)
# [13] = test system: VanA vancomycin-resistant E. faecium (10); experiment: MIC broth microdilution, VanA E. faecium; conditions: for MIC 50% / MIC 90%: E. faecium, VanA (10)
# [14] = test system: methicillin-resistant S. aureus (MRSA, 22); experiment: MIC broth microdilution, MRSA; conditions: for MIC 50% / MIC 90%: MRSA (22)
# [15] = 1 mg/kg single intraperitoneal dose
# [16] = 4 mg/kg single intraperitoneal dose
# [17] = 16 mg/kg single intraperitoneal dose
compound,measurement,setting,value
CCCCCCCCCCNCCNC1(C)CC(OC2C(Oc3c4cc5cc3Oc3ccc(cc3Cl)C(O)C3NC(=O)C(NC(=O)C5NC(=O)C(CC(N)=O)NC(=O)C(NC(=O)C(CC(C)C)NC)C(O)c5ccc(c(Cl)c5)O4)c4ccc(O)c(c4)-c4c(cc(O)c(CNCCOCCOCC[N+](C)(C)C)c4O)C(C(=O)O)NC3=O)OC(CO)C(O)C2O)OC(C)C1O (stereo not shown) [Compound 1],Max Kill (maximum decrease from initial infection level),S. aureus ATCC 25923; [15],0.15 Log10 CFU/thigh
same,AUCc-t (AUC difference between control and treated animals),S. aureus ATCC 25923; [15],28 (Log10 CFU/thigh)/hr
same,Max Kill (maximum decrease from initial infection level),S. aureus ATCC 25923; [16],−1.14 Log10 CFU/thigh
same,AUCc-t (AUC difference between control and treated animals),S. aureus ATCC 25923; [16],32.7 (Log10 CFU/thigh)/hr
same,Max Kill (maximum decrease from initial infection level),S. aureus ATCC 25923; [17],−1.07 Log10 CFU/thigh
same,AUCc-t (AUC difference between control and treated animals),S. aureus ATCC 25923; [17],60.4 (Log10 CFU/thigh)/hr
same,in vivo efficacy against S. aureus (in words),S. aureus ATCC 25923,bactericidal characteristics and prolonged in vivo activity
same,fold more potent than teicoplanin and daptomycin,[1],two- to four
same,fold more potent than vancomycin,[1],four- to eight
same,MIC 50%,[1],0.03 mg/L
same,MIC 90%,[1],0.06 mg/L
same,MIC 50%,[2],0.12 mg/L
same,MIC 90%,[2],0.12 mg/L
same,MIC 50%,[3],8 mg/L
same,MIC 90%,[3],8 mg/L
same,MIC 50%,[4],0.06 mg/L
same,MIC 90%,[4],0.06 mg/L
same,MIC 50%,[5],0.12 mg/L
same,MIC 50%,[6],0.06 mg/L
same,MIC 90%,[6],0.06 mg/L
same,MIC 50%,[7],0.03 mg/L
same,MIC 90%,[7],0.06 mg/L
same,MIC 50%,[8],0.06 mg/L
same,MIC 90%,[8],0.12 mg/L
same,fold more potent than linezolid,S. pneumoniae (22),32 fold
same,MIC 50%,S. pneumoniae (22),0.015 mg/L
same,MIC 90%,S. pneumoniae (22),0.03 mg/L
same,MIC 50%,[9],0.06 mg/L
same,MIC 90%,[9],0.12 mg/L
same,MIC 50%,[10],2 mg/L
same,MIC 50%,VanC enterococci (22),0.06 mg/L
same,MIC 90%,VanC enterococci (22),0.25 mg/L
same,MIC 50%,[11],0.015 mg/L
same,MIC 90%,[11],0.03 mg/L
same,MIC 50%,[12],0.03 mg/L
same,MIC 90%,[12],0.03 mg/L
same,MIC 50%,[13],4 mg/L
same,MIC 90%,[13],8 mg/L
CCCCCCCCCCNCCNC1(C)CC(OC2C(Oc3c4cc5cc3Oc3ccc(cc3Cl)C(O)C3NC(=O)C(NC(=O)C5NC(=O)C(CC(N)=O)NC(=O)C(NC(=O)C(CC(C)C)NC)C(O)c5ccc(c(Cl)c5)O4)c4ccc(O)c(c4)-c4c(cc(O)c(CNCCOCCOCCN)c4O)C(C(=O)O)NC3=O)OC(CO)C(O)C2O)OC(C)C1O (stereo not shown) [Compound 3],Max Kill (maximum decrease from initial infection level),S. aureus ATCC 25923; [15],−0.2 Log10 CFU/thigh
same,AUCc-t (AUC difference between control and treated animals),S. aureus ATCC 25923; [15],28.4 (Log10 CFU/thigh)/hr
same,Max Kill (maximum decrease from initial infection level),S. aureus ATCC 25923; [16],−0.41 Log10 CFU/thigh
same,AUCc-t (AUC difference between control and treated animals),S. aureus ATCC 25923; [16],32.3 (Log10 CFU/thigh)/hr
same,Max Kill (maximum decrease from initial infection level),S. aureus ATCC 25923; [17],−1.08 Log10 CFU/thigh
same,AUCc-t (AUC difference between control and treated animals),S. aureus ATCC 25923; [17],52.9 (Log10 CFU/thigh)/hr
same,organism reduction across doses,"S. aureus ATCC 25923; 1, 4 and 16 mg/kg intraperitoneal",organism reduction over the entire dose range
same,in vivo efficacy against S. aureus (in words),S. aureus ATCC 25923,bactericidal characteristics and prolonged in vivo activity
same,fold more potent than teicoplanin and daptomycin,[1],two- to four
same,fold more potent than vancomycin,[1],four- to eight
same,MIC 50%,[1],0.03 mg/L
same,MIC 90%,[1],0.12 mg/L
same,MIC 50%,[2],0.06 mg/L
same,MIC 90%,[2],0.12 mg/L
same,MIC 50%,[3],4 mg/L
same,MIC 90%,[3],8 mg/L
same,MIC 50%,[4],0.03 mg/L
same,MIC 90%,[4],0.06 mg/L
same,MIC 50%,[5],0.12 mg/L
same,MIC 50%,[6],0.06 mg/L
same,MIC 90%,[6],0.06 mg/L
same,MIC 50%,[7],0.03 mg/L
same,MIC 90%,[7],0.03 mg/L
same,MIC 50%,[8],0.06 mg/L
same,MIC 90%,[8],0.06 mg/L
same,fold more potent than linezolid,S. pneumoniae (22),32 fold
same,MIC 50%,S. pneumoniae (22),0.015 mg/L
same,MIC 90%,S. pneumoniae (22),0.03 mg/L
same,MIC 50%,[14],0.03 mg/L
same,MIC 90%,[14],0.06 mg/L
same,MIC 50%,[9],0.03 mg/L
same,MIC 90%,[9],0.12 mg/L
same,MIC 50%,[10],1 mg/L
same,MIC 50%,VanC enterococci (22),0.06 mg/L
same,MIC 90%,VanC enterococci (22),0.12 mg/L
same,MIC 50%,[11],0.015 mg/L
same,MIC 90%,[11],0.015 mg/L
same,MIC 50%,[12],0.015 mg/L
same,MIC 90%,[12],0.03 mg/L
same,MIC 50%,[13],2 mg/L
same,MIC 90%,[13],4 mg/L
CN[C@H](CC(C)C)C(=O)N[C@H]1C(=O)N[C@@H](CC(N)=O)C(=O)N[C@H]2C(=O)N[C@H]3C(=O)N[C@H](C(=O)N[C@H](C(=O)O)c4cc(O)cc(O)c4-c4cc3ccc4O)[C@H](O)c3ccc(c(Cl)c3)Oc3cc2cc(c3O[C@@H]2O[C@H](CO)[C@@H](O)[C@H](O)[C@H]2O[C@H]2C[C@](C)(N)[C@H](O)[C@H](C)O2)Oc2ccc(cc2Cl)[C@H]1O [Vancomycin],MIC50,[2]; Enterococcus faecalis,> 64 mg/L
same,MIC90,[2]; Enterococcus faecalis,> 64 mg/L
same,MIC50,[3]; Enterococcus faecalis,> 64 mg/L
same,MIC90,[3]; Enterococcus faecalis,> 64 mg/L
same,MIC50,"[4]; Staphylococcus aureus, MSSA",0.5 mg/L
same,MIC90,"[4]; Staphylococcus aureus, MSSA",1 mg/L
same,MIC50,[7]; Staphylococcus epidermidis,1 mg/L
same,MIC90,[7]; Staphylococcus epidermidis,2 mg/L
same,MIC50,[8]; Enterococcus faecalis,1 mg/L
same,MIC90,[8]; Enterococcus faecalis,2 mg/L
same,MIC50,"[14]; Staphylococcus aureus, MRSA",0.5 mg/L
same,MIC90,"[14]; Staphylococcus aureus, MRSA",1 mg/L
same,MIC50,[9]; Staphylococcus aureus,1 mg/L
same,MIC90,[9]; Staphylococcus aureus,4 mg/L
same,MIC50,VanC enterococci (22),4 mg/L
same,MIC90,VanC enterococci (22),4 mg/L
same,MIC50,[11]; Enterococcus faecium,64 mg/L
same,MIC90,[11]; Enterococcus faecium,> 64 mg/L
same,MIC50,[12]; Enterococcus faecium,0.5 mg/L
same,MIC90,[12]; Enterococcus faecium,1 mg/L
same,MIC50,[13]; Enterococcus faecium,> 64 mg/L
same,MIC90,[13]; Enterococcus faecium,> 64 mg/L
Teicoplanin [reference compound],MIC 50%,[1],0.12 mg/L
same,MIC 90%,[1],0.25 mg/L
same,MIC 50%,[2],0.5 mg/L
same,MIC 90%,[2],1 mg/L
same,MIC 50%,[3],64 mg/L
same,MIC 90%,[3],>64 mg/L
same,MIC 50%,[4],0.5 mg/L
same,MIC 90%,[4],1 mg/L
same,MIC 50%,[7],2 mg/L
same,MIC 90%,[7],4 mg/L
same,MIC 50%,[8],0.5 mg/L
same,MIC 90%,[8],0.5 mg/L
same,MIC 50%,S. pneumoniae (22),0.12 mg/L
same,MIC 90%,S. pneumoniae (22),0.12 mg/L
same,MIC 50%,[14],0.5 mg/L
same,MIC 90%,[14],0.5 mg/L
same,MIC 50%,[9],0.5 mg/L
same,MIC 90%,[9],8 mg/L
same,MIC 50%,VanC enterococci (22),1 mg/L
same,MIC 90%,VanC enterococci (22),2 mg/L
same,MIC 50%,[11],1 mg/L
same,MIC 90%,[11],1 mg/L
same,MIC 50%,[12],1 mg/L
same,MIC 90%,[12],1 mg/L
same,MIC 50%,[13],64 mg/L
same,MIC 90%,[13],>64 mg/L
